Reference: patent US12215093B2, “Bicyclic carboxamides and methods of use thereof” (Tempest Therapeutics, Inc., priority 2018, dated 2025)
Like-named read-outs stand apart in the source and are kept apart here.

Legend:
[1] = molecular target: T1, EP4 (Homo sapiens, UniProt P35408); test: Functional calcium flux assay, EP4; format: cell-based; details: stably transfected HEK293 cells; PGE2 10 nM; read-out: EP4 Ca2+-flux assay IC50
T1 construct: host or cells: stably transfected HEK293 cells co-expressing a promiscuous G protein and a clytin variant

[2] = Relative activity of resolved enantiomers/diastereomers (assay not stated); details: compared with the other eluting peak
[3] = molecular target: T2, EP2 (Homo sapiens, UniProt P43116); test: cell-based;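 also: functional calcium flux assay in stably transfected HEK293 cells expressing EP2 coupled via a promiscuous G protein, clytin luminescence read as area under the curve, 30 min compound preincubation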
Description: (§1) Each receptor subtype has an additional promiscuous G protein added in order to couple the aforementioned receptor to the calcium signaling pathway. The parental cell line used also expresses a novel variant of clytin, a calcium-activated photo-protein, to enable sensitive luminescent detection. Briefly, cells were plated at 50,000 cells-per-well in black, clear bottom 96-well plates. The plated cells were allowed to sit at room temperature for 30 min prior to transferring to a humidified, 37° C., 5% CO2 incubator for 18 to 24 h. Assay buffer (HBSS with 20 mM HEPES) and loading buffer (assay buffer plus 10 μM coelenterazine) were prepared on the day of the assay. Assays were performed by aspirating media from the assay plate and washing once with assay buffer, then replacing with loading buffer and allowing the cells to incubate for 1.5 h at room temperature. Compounds were prepared in assay buffer at a 3× final concentration in non-binding plates. Compounds were added to the cell plates and incubated for 30 min at room temperature. The prostanoid receptor ligand PGE2 was prepared at a 4× dilution ratio for a final concentration of 10 nM. Plates were run on a Flexstation™ using a 100 ms integration luminescence protocol for a total of 60 sec with ligand addition at 15 sec. Data were obtained from relative light units as measured by area under the curve.

[4] = molecular target: T2, EP2
Description: as §1

T2 sequence (P43116 whole entry): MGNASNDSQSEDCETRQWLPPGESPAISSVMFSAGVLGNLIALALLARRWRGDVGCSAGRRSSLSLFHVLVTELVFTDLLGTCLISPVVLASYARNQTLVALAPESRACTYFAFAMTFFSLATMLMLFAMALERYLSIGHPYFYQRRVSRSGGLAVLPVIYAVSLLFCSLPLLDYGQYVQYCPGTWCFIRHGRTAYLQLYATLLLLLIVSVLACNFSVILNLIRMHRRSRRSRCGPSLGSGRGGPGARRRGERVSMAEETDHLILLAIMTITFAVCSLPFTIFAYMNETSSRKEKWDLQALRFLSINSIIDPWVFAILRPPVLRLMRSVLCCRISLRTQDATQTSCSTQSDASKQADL
T1 sequence (P35408 whole entry): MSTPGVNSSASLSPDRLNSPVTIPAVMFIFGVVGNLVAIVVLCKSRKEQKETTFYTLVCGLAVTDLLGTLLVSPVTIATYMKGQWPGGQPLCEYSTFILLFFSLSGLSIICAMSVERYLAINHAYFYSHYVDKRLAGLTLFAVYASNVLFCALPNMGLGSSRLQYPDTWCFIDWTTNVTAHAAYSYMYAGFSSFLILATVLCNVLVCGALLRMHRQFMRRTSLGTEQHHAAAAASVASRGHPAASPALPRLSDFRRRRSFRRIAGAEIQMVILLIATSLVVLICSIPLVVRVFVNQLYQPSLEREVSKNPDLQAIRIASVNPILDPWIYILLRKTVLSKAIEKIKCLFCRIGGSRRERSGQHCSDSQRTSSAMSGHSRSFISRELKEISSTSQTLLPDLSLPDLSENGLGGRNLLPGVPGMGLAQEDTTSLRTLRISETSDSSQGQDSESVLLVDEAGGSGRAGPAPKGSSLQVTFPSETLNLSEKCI

Structure (SMILES)	IC50 [1]	IC50 [3]	IC50 [4]	more active enantiomer / diastereomer after chiral SFC resolution [2]
CC(c1ccc(-c2ccccc2)cc1)n1ncc2cc(Cl)cc(C(=O)NC3CC4(C3)CC(C(=O)O)C4)c21 (single isomer, unassigned) [Example 174, (Sa)-6-(1-((R) or (S))-1-([1,1′-Biphenyl]-4-yl)ethyl)-5-chloro-1H-indazole-7-carboxamido)spiro[3.3]heptane-2-carboxylic acid]	0.0064 µM	–	< 0.025 µM	more active diastereomer
O=C(NC1CC2(C1)CC(C(=O)O)C2)c1ccc(F)c2ccn(Cc3ccc(-c4ccccc4)cc3)c12 (stereo not shown) [Example 9, (Sa)-6-(1-([1,1′-Biphenyl]-4-ylmethyl)-4-fluoro-1H-indole-7-carboxamido)spiro[3.3]heptane-2-carboxylic acid]	–	–	–	more active enantiomer
O=C(NC1CC2(C1)CC(C(=O)O)C2)c1ccc(F)c2ccn(Cc3ccc(-c4ccncc4)cc3)c12 (stereo not shown) [Example 24, (Sa)-6-(4-Fluoro-1-(4-(pyridin-4-yl)benzyl)-1H-indole-7-carboxamido)spiro[3.3]heptane-2-carboxylic acid]	–	–	–	more active enantiomer
[2H]C1(C(=O)O)CC2(CC(NC(=O)c3ccc(F)c4ccn(Cc5ccc(-c6ccccc6)cc5)c34)C2)C1 (stereo not shown) [Example 105, (Sa)-6-(1-([1,1′-Biphenyl]-4-ylmethyl)-4-fluoro-1H-indole-7-carboxamido)-2-deuterospiro[3.3]heptane-2-carboxylic acid]	–	–	–	more active enantiomer
COc1cccc(-c2ccc(Cn3ccc4c(F)ccc(C(=O)NC5CC6(CC(CC(=O)O)C6)C5)c43)cc2)n1 (stereo not shown) [Example 150, (Ra)-2-(6-(4-fluoro-1-(4-(6-methoxypyridin-2-yl)benzyl)-1H-indole-7-carboxamido)spiro[3.3]heptan-2-yl)acetic acid]	< 0.001 µM	0.061 µM	–	–

Further lines, with some results ahead:

IC50 [1]	IC50 [3]	IC50 [4]	Structure (SMILES)	more active enantiomer / diastereomer after chiral SFC resolution [2]
< 0.001 µM	< 0.025 µM	–	CC(c1ccc(-c2ccccc2)cc1)n1ncc2cccc(C(=O)NC3CC4(C3)CC(C(=O)O)C4)c21 (single isomer, unassigned) [Example 125, (Sa)-6-(1-((R) or (S)-1-([1,1′-Biphenyl]-4-yl)-ethyl)-1H-indazole-7-carboxamido)spiro[3.3]heptane-2-carboxylic acid]	more active diastereomer
< 0.001 µM	0.043 µM	–	O=C(NC1CC2(C1)CC(C(=O)O)C2)c1ccc(F)c2ccn(Cc3ccc(OC(F)(F)F)cc3)c12 (stereo not shown) [Example 8, (Sa)-6-(4-Fluoro-1-(4-(trifluoromethoxy)benzyl)-1H-indole-7-carboxamido)spiro[3.3]heptane-2-carboxylic acid]	more active enantiomer
0.0012 µM	0.038 µM	–	CS(=O)(=O)NC(=O)C1CC2(CC(NC(=O)c3ccc(F)c4ccn(Cc5ccc(OC(F)(F)F)cc5)c34)C2)C1 (stereo not shown) [Example 111, (Sa)-4-Fluoro-N-(6-((methylsulfonyl)carbamoyl)spiro[3.3]heptan-2-yl)-1-(4-(trifluoromethoxy)benzyl)-1H-indole-7-carboxamide]	–
< 0.001 µM	< 0.025 µM	–	COc1cc(-c2ccc(Cn3ncc4cc(Cl)cc(C(=O)NC5CC6(C5)CC(C(=O)O)C6)c43)cc2)ccn1 (stereo not shown) [Example 135, (Sa)-6-(5-Chloro-1-(4-(2-methoxypyridin-4-yl)benzyl)-1H-indazole-7-carboxamido)spiro[3.3]heptane-2-carboxylic acid]	–
< 0.001 µM	< 0.025 µM	–	CCOc1cc(-c2ccc(Cn3ncc4cc(Cl)cc(C(=O)NC5CC6(C5)CC(C(=O)O)C6)c43)cc2)ccn1 (stereo not shown) [Example 136, (Sa)-6-(5-chloro-1-(4-(2-ethoxypyridin-4-yl)benzyl)-1H-indazole-7-carboxamido)spiro[3.3]heptane-2-carboxylic acid]	–
0.0029 µM	< 0.025 µM	–	O=C(NC1CC2(C1)CC(C(=O)O)C2)c1ccc(Cl)c2cnn(C3(c4ccc(-c5ccccc5)cc4)COC3)c12 (stereo not shown) [Example 176, (Sa)-6-(1-(3-([1,1′-Biphenyl]-4-yl)oxetan-3-yl)-4-chloro-1H-indazole-7-carboxamido)spiro[3.3]heptane-2-carboxylic acid]	–
